# Source: patent publication US6548553B2, “Styryl sulfone anticancer agents” (Temple University-of the Commonwealth System of Higher …, priority 1997, dated 2003)
# Experiments:
# Type in all cases: cell-based
# [1] = tested on: 361 breast tumor cell line; assay: Trypan blue exclusion viability assay, breast tumor cell line; conditions: 2.5 and 5.0 μM, 48 hours
# Protocol: (§1) The effect of FR-20 on the growth of normal and tumor cells of breast and prostate was examine utilizing nine cell lines: NIH/3T3 and HFL (normal fibroblast cell lines); MCF-7 and 361 ([…] breast tumor cell lines); BT-20, 435 and SKBR-3 ([…] breast tumor cell lines); LnCaP (androgen sensitive prostate tumor cell line); PC-3 and DU-145 (androgen insensitive prostate tumor cell line).
# (§2) The cells were grown as in Example 22, A. FR-20 was dissolved in DMSO and added to the cells at 2.5 μM and 5.0 μM concentration. To control cells, DMSO was added equivalent to the volume of solvent (DMSO) present at the highest concentration of the compound. The activity of the compound was evaluated after 48 hours by Trypan blue exclusion. […] Nearly 50% of SKBR-3 and BT-20 cells were dead at 2.5 μM and 75% at 5.0 μM concentration of the compound. […] FRI-20 had profound effect on the viability of androgen-dependent LnCaP prostate tumor cell line when compared to androgen-independent DU-145 and PC-3 prostate cell lines. At […] FRI-20, 80% of LnCaP, 40% of PC-3 and 20% of DU-145 cells were killed. At […] FRI-20, 72% of LnCaP, 47% of PC-3 and 40% of DU-145 were killed (FIG. 3B).
# SKBR-3 and BT-20 cells = assay: Trypan blue exclusion viability assay, breast tumor cell lines; conditions: 48 hours
# Protocol: as §1, §2
# [2] = tested on: MCF-7, HTB126, T470 and 435 cells; assay: as above; conditions: 48 hours
# Protocol: as §1, §2
compound,measurement,setting,value
"O=S(=O)(/C=C/c1ccc(F)cc1)Cc1ccc(Cl)cc1 [Example 11, E-4-fluorostyryl 4-chlorobenzyl Sulfone]",viable cells,[1],50-75%
same,dead cells,SKBR-3 and BT-20 cells; 2.5 µM,~50%
same,dead cells,SKBR-3 and BT-20 cells; 5.0 µM,75%
same,viability at 2.5 µM,[2]; 2.5 µM,< 25%
same,viability at 5 µM,[2]; 5.0 µM,< 10%
